In US20080167347A1, “Ctgf Expression Inhibitor” (SHIONGI & CO., LTD., priority 2005, published 2008):

Tested on: human CTGF promoter region containing TGF-β responsive element
Test: Luciferase assay of CTGF promoter activity in Ms0-2-3 cells stimulated with TGF-β
Format: cell-based
Conditions: Mesangial cell; Ms0-2-3 rat mesangial cells, TGF-β 2 ng/ml stimulation, luciferase activity after 24 hours; read-out: IC50 (inhibitory rate against CTGF promoter activity)
Description: Several kidneys of 6 to 8-week-old male Wistar rats were perfused with sterilized phosphate buffered saline (PBS) and excised. Glomeruli were isolated from the cortex by a sieving method (with 180, 125 or 63 μm mesh). Isolated glomeruli were cultured in RPMI1640 medium containing 20% bovine serum, 1% penicillin-streptomycin and 1% Hepes buffer at 37° C. under 5% carbon dioxide (CO2) atmosphere. After 3 weeks, the medium was changed to the new one. After 4 weeks, mesangial cells which proliferated and became confluent were diluted 2 to 5 times and subcultured. Subcultures were repeated over 20 times, and mesangial cells cultured in usual RPMI1640 medium containing 10% bovine serum, 1% penicillin-streptomycin and 1% Hepes buffer were cloned by a limiting dilution method to establish cell line Ms0-2. […]
Luciferase assay was performed with Ms0-2-3 cells which were cultured with serum-free medium for 48 hours. […] Substrate was added thereto and luciferase activity of each well was measured by luminometer. Enhancement of luciferase activity by TGF-β stimulation (without a compound) was determined as 100% and the inhibitory rate of activity by addition of the compound was calculated. The value obtained from the inhibitory curve was judged as the inhibitory rate against CTGF promoter activity and determined as IC50 value. […]

IC50: 102 nM
Compound: O=C(Nc1cccc(C(F)(F)F)c1)c1cc(-c2ccc(OC(F)(F)F)cc2)ccc1O [Compound 43]
